Reference: PubChem BioAssay (NCI)
“And” between values parts separate entries of the source, which are not always exact repeats. Identical values can stand only once.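 These data come from cells grown in 96-well plates and exposed to compound for 48 hours at five concentrations. GI50: concentration for 50% inhibition of growth. TGI marks complete inhibition of growth.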

What was measured:
Assay in all cases: inhibition of tumour cell growth, NCI panel, 48 h
LOX IMVI melanoma = tested on: LOX IMVI melanoma
HT29 colon = tested on: HT29 colon
SR leukemia = tested on: SR leukemia
M14 melanoma = tested on: M14 melanoma
UACC-257 melanoma = tested on: UACC-257 melanoma
BT-549 breast = tested on: BT-549 breast
HOP-62 NSCLC = tested on: HOP-62 NSCLC
OVCAR-4 ovarian = tested on: OVCAR-4 ovarian
UO-31 renal = tested on: UO-31 renal
CCRF-CEM leukemia = tested on: CCRF-CEM leukemia

## O=C1CC(c2ccccc2)Cc2nc3ccc(Br)cc3cc21 (stereo not drawn)
LOX IMVI melanoma
  GI50: 0.746 µM
  TGI: > 59.8 µM
HT29 colon
  GI50: 0.244 µM
  TGI: > 100 µM
SR leukemia
  GI50: 0.0855 µM
  TGI: > 36.8 µM
M14 melanoma
  GI50: 0.0486 µM
  TGI: 12.4 µM
UACC-257 melanoma
  GI50: 23.6 µM
  TGI: > 100 µM
BT-549 breast
  GI50: 0.589 µM
  TGI: 15.9 µM
HOP-62 NSCLC
  GI50: 0.526 µM
  TGI: > 100 µM
OVCAR-4 ovarian
  GI50: 6.93 µM
  TGI: > 100 µM
UO-31 renal
  GI50: 0.689 µM
  TGI: > 100 µM
CCRF-CEM leukemia
  GI50: 0.0492 µM
  TGI: > 100 µM

## O=C(C=P(c1ccccc1)(c1ccccc1)c1ccccc1)CCl
LOX IMVI melanoma
  GI50: 0.353 µM
  TGI: 1.04 µM
HT29 colon
  GI50: 1.13 µM
  TGI: 2.8 µM
SR leukemia
  GI50: 0.38 µM
  TGI: 10.5 µM
M14 melanoma
  GI50: 1.36 µM
  TGI: 3.89 µM
UACC-257 melanoma
  GI50: 1.14 µM
  TGI: 2.59 µM
BT-549 breast
  GI50: 1.89 µM
  TGI: 7.14 µM
HOP-62 NSCLC
  GI50: 2.62 µM
  TGI: 7.93 µM
OVCAR-4 ovarian
  GI50: 0.488 µM
  TGI: 2.2 µM
UO-31 renal
  GI50: 1.04 µM
  TGI: 2.38 µM
CCRF-CEM leukemia
  GI50: 0.826 µM
  TGI: 7.41 µM

## C#Cc1cccc(Nc2ncnc3ccc(OCCCCNCCS(C)(=O)=O)cc23)c1
LOX IMVI melanoma
  GI50: 4.78 µM
  TGI: 11.1 µM
HT29 colon
  GI50: 5.44 µM
  TGI: 12.5 µM
SR leukemia
  GI50: 6.55 µM
  TGI: 15.3 µM
M14 melanoma
  GI50: 5.11 µM
  TGI: 9.66 µM
UACC-257 melanoma
  GI50: 4.39 µM
  TGI: 8.38 µM
BT-549 breast
  GI50: 8.33 µM
  TGI: > 25 µM
HOP-62 NSCLC
  GI50: 11.5 µM
  TGI: > 25 µM
OVCAR-4 ovarian
  GI50: 9.55 µM
  TGI: > 25 µM
UO-31 renal
  GI50: 3.31 µM
  TGI: > 15.4 µM
CCRF-CEM leukemia
  GI50: 7.65 µM
  TGI: > 25 µM

## COc1cc(/C=C2\CCC/C(=C\c3ccc(O)c(OC)c3)C2=O)ccc1O
LOX IMVI melanoma
  GI50: 1.46 µM
  TGI: 3.49 µM and 2.83 µM
HT29 colon
  GI50: 2.31 µM
  TGI: 18.8 µM and 5.68 µM
SR leukemia
  GI50: 1.08 µM
M14 melanoma
  GI50: 1.92 µM
  TGI: 6.79 µM and 5.61 µM
UACC-257 melanoma
  GI50: 1.71 µM
  TGI: 27 µM and 6.74 µM
BT-549 breast
  GI50: 1.76 µM
  TGI: 14.2 µM and 3.28 µM
HOP-62 NSCLC
  GI50: 1.79 µM
  TGI: 8.32 µM and 3.95 µM
OVCAR-4 ovarian
  GI50: 2.54 µM
  TGI: 43.5 µM and 10.6 µM
UO-31 renal
  GI50: 1.17 µM
  TGI: 4.82 µM and 2.83 µM
CCRF-CEM leukemia
  GI50: 0.366 µM
  TGI: 12.2 µM and > 100 µM

## CN(C)CC(=O)Nc1ccc2ncnc(Nc3ccc(Oc4cccc(C(F)(F)F)c4)c(Cl)c3)c2c1
LOX IMVI melanoma
  GI50: 1.73 µM
  TGI: 3.13 µM
HT29 colon
  GI50: 1.72 µM
  TGI: 4.08 µM
SR leukemia
  GI50: 2.46 µM
  TGI: 9.15 µM
M14 melanoma
  GI50: 1.46 µM
  TGI: 2.85 µM
UACC-257 melanoma
  GI50: 2.05 µM
  TGI: 4.25 µM
BT-549 breast
  GI50: 3.91 µM
  TGI: 17.3 µM
HOP-62 NSCLC
  GI50: 2.09 µM
  TGI: 5.71 µM
OVCAR-4 ovarian
  GI50: 1.96 µM
  TGI: 5.83 µM
UO-31 renal
  GI50: 0.951 µM
  TGI: 2.32 µM
CCRF-CEM leukemia
  GI50: 2.52 µM
  TGI: 10.4 µM

## N#CC1=C(N)NC(=S)NC12Nc1ccccc1S2 (stereo not drawn)
LOX IMVI melanoma
  GI50: 17 µM
  TGI: 44.7 µM
HT29 colon
  GI50: 31 µM
  TGI: > 100 µM
SR leukemia
  GI50: 15.8 µM
  TGI: 46.8 µM
M14 melanoma
  GI50: 40.1 µM
  TGI: > 100 µM
UACC-257 melanoma
  GI50: 29 µM
  TGI: > 100 µM
BT-549 breast
  GI50: 18.6 µM
  TGI: 53 µM
OVCAR-4 ovarian
  GI50: 81.4 µM
  TGI: > 100 µM
UO-31 renal
  GI50: 35.8 µM
  TGI: > 100 µM
CCRF-CEM leukemia
  GI50: 15.1 µM
  TGI: 53.3 µM

## COc1cc(/C=C/c2cc(/C=C/c3ccc(O)c(OC)c3)n(C(=O)Nc3ccccc3Cl)n2)ccc1O
LOX IMVI melanoma
  GI50: 0.193 µM
  TGI: 1.39 µM
HT29 colon
  GI50: 0.323 µM
  TGI: 1.36 µM
M14 melanoma
  GI50: 0.283 µM
  TGI: 1.19 µM
UACC-257 melanoma
  GI50: 1.02 µM
  TGI: 3.71 µM
BT-549 breast
  GI50: 0.303 µM
  TGI: 2.75 µM
HOP-62 NSCLC
  GI50: 0.471 µM
  TGI: 1.78 µM
OVCAR-4 ovarian
  GI50: 0.722 µM
  TGI: 9.09 µM
UO-31 renal
  GI50: 0.159 µM
  TGI: 1.17 µM
CCRF-CEM leukemia
  GI50: 0.216 µM
  TGI: 0.844 µM

## Cn1cc(-c2nc(-c3c[nH]c4ncccc34)cs2)c2ccccc21
LOX IMVI melanoma
  GI50: 24.5 µM
  TGI: > 100 µM
SR leukemia
  GI50: 3.72 µM
  TGI: > 100 µM
M14 melanoma
  GI50: 19.3 µM
  TGI: > 100 µM
UACC-257 melanoma
  GI50: 66.3 µM
  TGI: > 100 µM
BT-549 breast
  GI50: 23.7 µM
  TGI: > 100 µM
HOP-62 NSCLC
  GI50: 19.7 µM
  TGI: 68.4 µM
OVCAR-4 ovarian
  GI50: 0.117 µM
  TGI: > 100 µM
UO-31 renal
  GI50: > 100 µM
  TGI: > 100 µM
CCRF-CEM leukemia
  GI50: 24.1 µM
  TGI: > 100 µM

## COC(=O)c1ccc(/C=C(\c2ccc([N+](=O)[O-])o2)S(=O)(=O)c2ccc(NC(C)=O)cc2)o1
HT29 colon
  TGI: 5.76 µM
SR leukemia
  TGI: 4.32 µM
M14 melanoma
  TGI: 15.4 µM
UACC-257 melanoma
  TGI: 4.54 µM
BT-549 breast
  TGI: 5.43 µM
HOP-62 NSCLC
  TGI: 33.4 µM
OVCAR-4 ovarian
  TGI: 4.67 µM
UO-31 renal
  TGI: 18.2 µM

## COc1cc([N+](=O)[O-])c(OC)cc1-c1nc2sc(C)cn2c1/C(N)=N/C(=N)N
LOX IMVI melanoma
  GI50: 30.4 µM
  TGI: > 100 µM
HT29 colon
  GI50: > 100 µM
  TGI: > 100 µM
M14 melanoma
  GI50: > 100 µM
  TGI: > 100 µM
UACC-257 melanoma
  GI50: 18.4 µM
  TGI: 67 µM
BT-549 breast
  GI50: 29.8 µM
  TGI: > 100 µM
HOP-62 NSCLC
  GI50: 71.3 µM
  TGI: > 100 µM
OVCAR-4 ovarian
  GI50: > 100 µM
  TGI: > 100 µM
UO-31 renal
  GI50: 38.3 µM
  TGI: > 100 µM
CCRF-CEM leukemia
  GI50: 18 µM
  TGI: > 100 µM

## O=C(c1ccccc1Cl)n1oc2ccccc2c1=O
LOX IMVI melanoma
  TGI: > 100 µM
HT29 colon
  TGI: > 100 µM
M14 melanoma
  TGI: > 100 µM
UACC-257 melanoma
  TGI: > 100 µM
BT-549 breast
  TGI: > 100 µM
HOP-62 NSCLC
  TGI: > 100 µM
OVCAR-4 ovarian
  TGI: > 100 µM
UO-31 renal
  TGI: > 100 µM
CCRF-CEM leukemia
  TGI: 74 µM

## CCCCCCn1c(SC)nc(COC(=O)NC)c1COC(=O)NC
LOX IMVI melanoma
  TGI: > 100 µM
HT29 colon
  TGI: 36.2 µM
SR leukemia
  TGI: 71.7 µM
M14 melanoma
  TGI: 38.8 µM
UACC-257 melanoma
  TGI: 37.8 µM
BT-549 breast
  TGI: 34 µM
HOP-62 NSCLC
  TGI: 37.1 µM
OVCAR-4 ovarian
  TGI: 21.4 µM
UO-31 renal
  TGI: 31.3 µM

## Cc1ccc2cccc(OC(=O)Nc3cccc(C(F)(F)F)c3)c2n1
HT29 colon
  GI50: 3.45 µM
  TGI: 12 µM
SR leukemia
  GI50: 5.6 µM
  TGI: > 100 µM
M14 melanoma
  GI50: 4.06 µM
  TGI: 16.2 µM
UACC-257 melanoma
  GI50: 3.4 µM
  TGI: 12.9 µM
BT-549 breast
  GI50: 10.7 µM
  TGI: 26.8 µM
HOP-62 NSCLC
  GI50: 5.83 µM
  TGI: 18.6 µM
OVCAR-4 ovarian
  GI50: 2.09 µM
  TGI: 10.3 µM
UO-31 renal
  GI50: 2.4 µM
  TGI: 8.99 µM
CCRF-CEM leukemia
  GI50: 2.86 µM
  TGI: 19.2 µM

## COc1ccc(C(=NN=C(N)N)c2ccc(OC)cc2)cc1
LOX IMVI melanoma
  GI50: 2.91 µM
  TGI: 11.4 µM
HT29 colon
  GI50: 2.95 µM
  TGI: 12.6 µM
M14 melanoma
  GI50: 2.35 µM
  TGI: 6.36 µM
UACC-257 melanoma
  GI50: 7.24 µM
  TGI: 25.1 µM
BT-549 breast
  GI50: 3.94 µM
  TGI: 15.6 µM
HOP-62 NSCLC
  GI50: 3.9 µM
  TGI: 15.5 µM
OVCAR-4 ovarian
  GI50: 3.46 µM
  TGI: 16.4 µM
UO-31 renal
  GI50: 3.46 µM
  TGI: 15.6 µM
CCRF-CEM leukemia
  GI50: 5.18 µM
  TGI: 42.6 µM
